Counter-ions that a name gives are not always drawn.
Legend:
[1] = target: T1, RORα (Homo sapiens, UniProt P35398); experiment: RORE reporter transcription in cells partially depleted of cholesterol (HPCD plus lovastatin, LDL-free serum); conditions: for Transcription of the RORE reporter in response to compound (in words): HPCD and lovastatin treated cells, compared to vehicle; for fold induction at 10 µM: read-out: Fold induction (ROR alpha transcriptional activity)
T1 sequence (P35398 1-556 isoform P35398-1): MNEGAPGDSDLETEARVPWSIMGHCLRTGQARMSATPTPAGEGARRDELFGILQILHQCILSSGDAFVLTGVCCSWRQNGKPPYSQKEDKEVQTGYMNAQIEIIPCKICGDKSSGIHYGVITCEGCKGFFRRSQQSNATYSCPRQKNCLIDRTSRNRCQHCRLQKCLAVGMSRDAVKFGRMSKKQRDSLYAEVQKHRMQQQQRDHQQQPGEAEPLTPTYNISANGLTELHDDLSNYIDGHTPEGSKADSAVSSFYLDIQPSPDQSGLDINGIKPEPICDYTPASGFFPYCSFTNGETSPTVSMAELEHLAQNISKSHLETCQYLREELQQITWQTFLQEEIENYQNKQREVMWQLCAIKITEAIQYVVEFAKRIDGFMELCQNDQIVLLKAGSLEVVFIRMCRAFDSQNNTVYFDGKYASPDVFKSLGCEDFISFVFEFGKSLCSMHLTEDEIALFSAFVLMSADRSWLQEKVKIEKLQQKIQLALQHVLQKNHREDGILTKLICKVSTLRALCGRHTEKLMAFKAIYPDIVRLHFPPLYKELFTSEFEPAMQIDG
Text: We next establish whether in eukaryotic cells partially depleted of cholesterol, RORα transcriptional activity can be reconstituted by addition of cholesterol. We therefore treat the cells with hydroxypropyl-β-cyclodextrin (HPCD), a cyclodextrin derivative known to function as a cholesterol shuttle. HPCD treatment is used in experiments aiming at the partial depletion of intracellular cholesterol. In order to prevent an increase of intracellular cholesterol through the activation of the mevalonate pathway, cells are also treated with lovastatin while they are fed with a medium containing LDL-free serum.

[2] = target: T2, RORα-LBD (Homo sapiens, UniProt P35398); experiment: Ligand exchange screening by mass spectrometry (ESI Q-Tof, non-covalent complexes); format: binding; conditions: for Displacement of cholesterol bound to the ROR-LBD (mass spectrometry): 10-fold molar excess of ligand, overnight at 4° C., protein 135 μM
T2 construct: (His)6RORα-LBD269-556 is produced in Sf9 cells; (His)6 (N); made in house; host or cells: Sf9 insect cells
T2 sequence (P35398 269-556 isoform P35398-1): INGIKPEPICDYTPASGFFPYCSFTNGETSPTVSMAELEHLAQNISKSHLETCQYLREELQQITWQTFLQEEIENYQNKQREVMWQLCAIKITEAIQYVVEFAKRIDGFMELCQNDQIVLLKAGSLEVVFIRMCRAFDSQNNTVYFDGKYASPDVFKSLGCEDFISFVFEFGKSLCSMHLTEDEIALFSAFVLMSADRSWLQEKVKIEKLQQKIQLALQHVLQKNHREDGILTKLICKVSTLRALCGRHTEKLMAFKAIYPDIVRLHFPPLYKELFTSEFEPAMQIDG
Description: (His)6RORα-LBD269-556 is produced in Sf9 cells and purified by Ni-NTA chromatography followed by size exclusion chromatography. The protein in Tris-HCl buffer at a concentration of 135 μM is incubated overnight at 4° C., with a 10-fold molar excess of 25-hydroxycholesterol (5-cholesten-3beta, 25-diol) or cholesterol sulfate (5-cholesten-3beta-ol-sulfate). Prior to mass spectrometry analysis, the protein is subjected to fast buffer exchange in 50 mM ammonium acetate pH 7.0 by size exclusion chromatography using disposable Centri∘Spin 20 columns (Princeton Separations, Adelphia, N.J.) according to manufacturer′s instructions. Mass spectrometry is carried out using a Q-Tof (Micromass, Manchester, UK) quadrupole time-of-flight hybrid tandem mass spectrometer equipped with a Micromass Z-type electrospray ionization source (ESI). The acquisition mass range is typically m/z 1500-4500 in 5 seconds. The mass spectrometer is tuned in order to allow detection of multiply-charged species of non-covalent complexes. The source block temperature and desolvation temperature are kept at 50° C. and 80° C., respectively. Sample cone voltage (Vc) is set to 23 volts for standard measurements. In-source induced fragmentation experiments are performed by increasing Vc up to 100 volts. The protein solution is infused at a flow rate of 10 μl/min. Data are recorded and processed using Masslynx software. Spectra are deconvoluted using MaxEnt analysis software (Micromass, Manchester, UK).
Generation of the construct (His)6RORα-LBD270-523, fermentation and purification are done as described above. […] The resulting solution is incubated overnight at 37° C. and further purified by size exclusion chromatography on a SPX75 column, before concentrating to 17.6 mg/ml for crystallization trials. MS determination of the native complex is done as described previously (Kallen et al., Structure, Vol.10, 1697-1707, 2002). A control experiment is done by incubating the same amount of RORα LBD protein with 5% DMSO under identical conditions. The protein concentration is approximately 15 μM in 50 mM AcONH4, pH 7.0. Both spectra are recorded under identical conditions with Vc=20 volts.

[3] = target: T1, RORα; experiment: Screen of cholesterol derivatives for binding of RORα to the RORE in essentially cholesterol-free medium; conditions: baculovirus-expressed RORα
Text: The substances identified by rational design can be further analyzed in drug screening assay. The drug screening assays of the present invention may use any of a number of assays for measuring the functionality of RORα, including for the ability of RORα following ligand binding to transcriptionally regulate a gene, by increasing phosphorylation of RORα, by allowing RORα to dimerize or to heterodimerize with another nuclear receptor, by improving its ability to interact with co-activators, by changing its conformation and by increasing its ability to bind DNA. In one binding assay, a nucleic acid containing a RORα binding site is placed on a coated or onto a solid support. A preferred binding site is a response element (RORE) composed of a 6 bp AT rich motif immediately preceding a half site AGGTCA and the possible variants of this response element that are given in Giguere et al. 1994, Genes & Development 8:538-553, Mc Broom et al. 1995 Mol.Cell. Biol. 15: 796-808, Moraitis & Giguere, 1999; Molecular Endocrinology. 13:431-439. Methods for placing the nucleic acid on the solid support are well known in the art and include linking biotin to the nucleic acid and linking avidin to the solid support. The RORα is allowed to equilibrate with the nucleic acid and drugs are tested to see if they disrupt or enhance the binding. […]

[4] = target: T1, RORα; experiment: RORE-tk-luc luciferase reporter assay in U2OS cells in essentially sterol free medium, fluvastatin treatment; format: cell-based
Description: Mammalian cells receive cholesterol by uptake from lipoproteins (LDL-cholesterol) and are able to synthesize cholesterol through the mevalonate pathway. In a situation where cells are cultured under conditions essentially sterol free, a key transcription factor, SREBP will be proteolytically cleaved and this releases a transcription factor to the nucleus. This transcription factor is able to transcriptionally activate HMG-CoA reductase, which is a critical step in the cholesterol biosynthesis through the mevalonate pathway. Statins, which are know drugs for hypercholesterol state are specific inhibitors of the HMG-CoA reductase. When cells are cultivated in sterol free medium, their HMG-CoA reductase is strongly activated. In this experiment cells, cultivated in medium essentially sterol free, are treated with fluvastatin. […] U2OS cells are transfected with expression vector for RORα (ROR) together with a luciferase reporter gene bearing a consensus response element for RORα (RORE-tk-luc). Luciferase activity is assayed in cells from 6 well plates and related to the activity in cells transfected with or without treatment with fluvastatin. The results are normalized to the protein content.

[5] = compounds 10 μM, cells treated with HPCD and lovastatin, LDL-free serum, control = 1

| SMILES | Fold induction (ROR alpha transcriptional activity) ([1]; 10 µM) | Transcription of the RORE reporter in response to compound (in words) [1] | fold induction at 10 µM [1] | also measured |
| --- | --- | --- | --- | --- |
| CCC(CC[C@@H](C)[C@H]1CC[C@H]2[C@@H]3CC=C4C[C@@H](OC(C)=O)CC[C@]4(C)[C@H]3CC[C@]12C)C(C)C (stereo partly drawn) [5-Cholesten-24beta, 5-Cholesten-24β-ethyl-3β-ol acetate] | 1 | does not trigger any increase | – | – |
| CC(C)CCC[C@@H](C)[C@H]1CC[C@H]2C3=CC=C4C[C@@H](O)CC[C@]4(C)[C@H]3CC[C@]12C [7-Dehydrochol, 7-Dehydrocholesterol] | – | – | – | Fold induction (ROR alpha transcriptional activity) [1, 5]: 4.6 |
| CC(C)CCC[C@](C)(O)[C@H]1CC[C@H]2[C@@H]3CC=C4C[C@@H](O)CC[C@]4(C)[C@H]3CC[C@@]21C [20(S)-OH-Chol] | 1.2 | – | – | – |
| CC(C)CC[C@@H](O)[C@@H](C)[C@H]1CC[C@H]2[C@@H]3CC=C4C[C@@H](O)CC[C@]4(C)[C@H]3CC[C@]12C [22(R)-OH-Chol] | 1.2 | – | – | – |
| C[C@H](CCCC(C)(C)O)[C@H]1CC[C@H]2[C@@H]3CC=C4C[C@@H](O)CC[C@]4(C)[C@H]3CC[C@]12C [25-OH-Chol, 5-cholesten-3beta, 25-diol] | – | – | 1.6 | Displacement of cholesterol bound to the ROR-LBD (mass spectrometry) [2]: able to fully displace cholesterol |
| C[C@@H](CO)CCC[C@@H](C)[C@H]1CC[C@H]2[C@@H]3CC=C4C[C@@H](O)CC[C@]4(C)[C@H]3CC[C@]12C [27-OH-Chol] | 1.5 | – | – | – |
| CC(C)CCC[C@@H](C)[C@H]1CC[C@H]2[C@@H]3CC=C4C[C@@H](OS(=O)(=O)O)CC[C@]4(C)[C@H]3CC[C@]12C [Chol. Sulfate, 5-cholesten-3beta-ol-sulfate] | – | – | 5.4 | Exchange of cholesterol by cholesterol-sulfate, MS-analysis ([2]; 1.0 mM ligand, 73 μM (His)6RORαLBD270-523, overnight at 37° C.): confirmed by MS-analysis; Displacement of cholesterol bound to the ROR-LBD (mass spectrometry) ([2]; listed as cholesterol sulfate): able to fully displace cholesterol; Displacement of cholesterol bound to the ROR-LBD (mass spectrometry) ([2]; listed as cholesterol-sulfate): could be exchanged with cholesterol-sulfate; Stability of ligand/ROR-LBD complex versus in-source collisions at various cone-voltages ([2]; compared with apo-ROR-LBD, Vc up to 100 volts): more stable; Displacement of cholesterol (RORα binding to RORE screen) [3]: able to displace cholesterol |
| CC(C)CCC[C@@H](C)[C@H]1CC[C@H]2[C@@H]3CC[C@H]4C[C@@H](O)CC[C@]4(C)[C@H]3CC[C@]12C [Cholestanol] | – | stimulated | – | Fold induction (ROR alpha transcriptional activity) [1, 5]: 2.4 |
| CC(C)CCC[C@@H](C)[C@H]1CC[C@H]2[C@@H]3CC=C4C[C@@H](O)CC[C@]4(C)[C@H]3CC[C@]12C [Cholesterol, cholest-5-en-3beta-ol] | – | stimulated | 3.3 | – |
| CC(C)CCC[C@@H](C)[C@H]1CC[C@H]2[C@@H]3CC=C4C[C@H](O)CC[C@]4(C)[C@H]3CC[C@]12C [Epicholesterol, 5-Cholesten-3α-ol] | – | stimulated | 2.8 | – |
| CC(C)n1c(/C=C/C(O)CC(O)CC(=O)O)c(-c2ccc(F)cc2)c2ccccc21 (stereo not shown) [Fluvastatin] | – | – | – | fold induction at 5 µM ([4]; fluvastatin +5 μM, paired control 76, read-out: Fold induction (RORα transcriptional activity, luciferase)): 48; fold induction at 10 µM ([4]; fluvastatin +10 μM, paired control 93, read-out: Fold induction (RORα transcriptional activity, luciferase)): 38 |

Reference: patent US20050165218A1, “Crystal structure of the ligand binding domain of the retinoic acid-related orphan receptor alpha (ror-alpha)” (priority 2002, published 2005)
